Measurements taken from patent US10751378B2, “Pharmaceutical composition comprising Pistacia weinmannifolia extract, fraction of same or compound separated from same for preventing or treating chronic obstructive pulmonary disease (COPD)” (Korea Research Institute of Bioscience and Biotechnology, priority 2014, dated 2020).

Experiments:
[1] = tested on: H292 cells; test: Cytotoxicity test: H292 cell viability (CCK-8); format: cell-based, human; conditions: 24 hours, negative control (0.2% DMSO) = 100%
Experimental: To confirm the cytotoxicity of a Pistacia weinmannifolia extract, a fraction thereof, and a compound isolated therefrom, which were prepared and extracted in Example 1, experiments were performed by applying the method described in the existing references (Ishiyama et al., Talanta, 44, pp. 1299-1305, 1997; Tominaga et al., Anal. Commun., 36, pp. 47-50, 1999).
H292 (CRL-1848) was purchased from the American Type Culture Collection (ATCC). The H292 cells were cultured in RPMI medium (SH30027.01, RPMI 1640, Gibco) containing 10% fetal bovine serum and antibiotics, and cultured in the condition of humidified 5% CO2 atmosphere at 37° C. TNF-α was purchase from a company (300-01A, Peprotech, USA) and used.
The cells in a medium (GM) were placed in a 96-well plate at a density of (1×10^3 cells/well). After 24 hours, the cells were cultured along with a sample for one day. The cell viability rate was read via trivalues according to the manufacturer's manual using the Cell Counting Kit-8 (CK04-01, Dojindo Molecular Technologies, ML). The absorbance was measured using the VERSAmax microplate reader (SMP500-14915, Molecular Devices, USA) and the measured absorbance was converted into a cell number via a standard curve.
H292 cells, human mucosa cells of lung cancer, were suspended in RPMI medium (Gibco) containing 10% fetal bovine serum in a concentration of 5×10^4 cells/mL, inoculated to a 96 well-plate in an amount of 100 μL per each well, and allowed to be attached thereto for 12 hours. Six active fractions of Pistacia and 3 single compounds (PW11, PW12, and PW13) were treated according to concentrations, and cultured for 24 hours. As explained in the cell counting CCK-8 kit (Dojindo Molecular Technologies, ML), the CCK-8 solution (10 μL) was mixed with the medium (90 μL). The mixture (100 μL) was added to each well, reacted for the minimum 30 minutes to the maximum 4 hours, and the absorbance was measured at 570 nm. The cell viability was calculated according to Equation 1 above with reference to the negative control, which was treated with DMSO in a concentration of 0.2%, set at 100%. Cell Viability (%)=[value at OD 570 nm after treatment with an extract/value at OD 570 nm (negative control)]×100 [Equation 1]

[2] = tested on: MUC5AC; test: Inhibition of MUC5AC protein production induced by TNF-α (immunoassay of supernatant); format: cell-based; conditions: TNF-α 20 ng/mL; for inhibition at 0.125 µM / inhibition at 0.25 µM / inhibition at 0.5 µM / inhibition at 1 µM: read-out: Inhibition Rate (%) of MUC5AC production
Text: To analyze the effects of the Pistacia weinmannifolia extract, a fraction thereof, and a compound isolated therefrom, prepared and extracted in Example 1, on the prevention and treatment of inflammatory diseases such as COPD, the inhibitory effect of the Pistacia weinmannifolia extract, a fraction thereof, and a compound isolated therefrom against the secretion of a related protein, MUC5AC. In this regard, to confirm the inhibitory effect of the samples in Examples on the production of MUC5AC protein, experiments were performed using the method described in the reference (Sikder, M A. et al., Phytotherapy research: PTR. 28, 62-8, 2014).
The supernatant, which was recovered for the immunoassay of the produced MUC5AC, was aliquoted into a 96 well-plate in an amount of 50 μL and dried in a homeostat set at 50° C. The resultant was washed with PBS containing 1% BSA, reacted with MUC5AC antibody (ab3649, abcam) at room temperature for one hour, and aliquoted with the secondary antibody and reacted for one hour. The resultant was rewashed, reacted with 3,3′,5,5′-tetramethylbenzidine peroxide solution (54827-17-7, Sigma-Aldrich) for 20 minutes, and the reaction was stopped with a sulfuric acid solution and the coloration was measured at 450 nm using a microplate reader (VERSAmax microplate reader, SMP500-14915, Molecular Devices, USA).

Row | Structure (SMILES) | H292 Cell Viability Rate (%, Mean ± SD) ([1]; 0.125 μM) | H292 Cell Viability Rate (%, Mean ± SD) ([1]; 0.25 μM) | H292 Cell Viability Rate (%, Mean ± SD) ([1]; 0.5 μM) | H292 Cell Viability Rate (%, Mean ± SD) ([1]; 1 μM) | Amount of MUC5AC Secretion (Relative % to TNF-α Treated Group) ([2]; Conc. 0.125 μM) | inhibition at 0.125 µM ([2]; Conc. 0.125 μM) | Amount of MUC5AC Secretion (Relative % to TNF-α Treated Group) ([2]; Conc. 0.25 μM) | inhibition at 0.25 µM ([2]; Conc. 0.25 μM) | Amount of MUC5AC Secretion (Relative % to TNF-α Treated Group) ([2]; Conc. 0.5 μM) | inhibition at 0.5 µM ([2]; Conc. 0.5 μM) | Amount of MUC5AC Secretion (Relative % to TNF-α Treated Group) ([2]; Conc. 1 μM) | inhibition at 1 µM ([2]; Conc. 1 μM)
1 | O=C(/C=C/c1ccc(Oc2ccc(/C=C/C(=O)c3ccc(O)cc3O)cc2O)cc1)c1ccc(O)cc1O [Compound PW12] | 95.80 ± 2.90% | 96.47 ± 3.21% | 104.50 ± 1.32% | 115.88 ± 0.50% | 75.77 ± 7.66% | 24.2% | 74.23 ± 12.98% | 25.8% | 69.50 ± 5.37% | 30.5% | 69.74 ± 8.56% | 30.3%
2 | O=C(/C=C/c1ccc(Oc2ccc([C@@H]3[C@@H](C(=O)c4ccc(O)cc4O)[C@H](C(=O)c4ccc(O)cc4O)[C@H]3c3ccc(O)cc3)cc2O)cc1)c1ccc(O)cc1O [Compound PW13, di-(2,4-dihydroxybenzoyl)-(3,4-dihydroxyphenyl)-(4-hydroxyphenyl)-cyclobutane-3-O-4′-bichalcone] | 104.80 ± 2.34% | 103.53 ± 3.07% | 126.28 ± 7.75% | 71.92 ± 5.47% | 83.92 ± 9.77% | 16.1% | 82.39 ± 3.10% | 17.6% | 77.30 ± 2.33% | 22.7% | 73.76 ± 2.68% | 26.2%
